Experimental data from US5225607A, “Insecticidal ethers” (Imperial Chemical Industries PLC, priority 1985, dated 1993).

Key:
Format in all cases: in vivo
Blattella germanica = experiment: Insecticidal test, Blattella germanica (cockroach nymphs), residual; settings: 72 h, plastic pot, 3 days, read-out: grading of mortality, BG
Outline: (§1)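 Acetone solution diluted in water + 0.01% wetting agent; 500/250/100 ppm. Treat pests and/or host plant/food medium. Read mortality/knockdown day 1–3. Grades: A 80–100% (S. exigua 70–100%), B 50–79% (50–69%), C <50%.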

Myzus persicae = experiment: Insecticidal test, Myzus persicae (aphids), contact; settings: 72 h, Chinese Cabbage leaf, 3 days, read-out: grading of mortality, MP
Outline: as §1

Nilaparvata lugens = experiment: Insecticidal test, Nilaparvata lugens (brown planthopper), contact; settings: 72 h, Cabbage leaf, 3 days, read-out: grading of mortality, NL
Outline: as §1

Heliothis virescens = experiment: whole plant or invertebrate; settings: in Gossypium hirsutum, 72 h, read-out: grading of mortality, HV
Outline: as §1

Musca domestica [1] = experiment: Insecticidal test, Musca domestica (houseflies - adults), contact; settings: 24 h, cotton wool/sugar, 1 day, read-out: grading of mortality, MD
Outline: as §1

Diabrotica balteata = experiment: Insecticidal test, Diabrotica balteata (rootworm larvae), residual; settings: 72 h, filter paper/maize seed, 3 days, read-out: grading of mortality, DB
Outline: as §1

Spodoptera exigua = experiment: Insecticidal test, Spodoptera exigua (lesser armyworm), residual; settings: 72 h, cotton leaf, 3 days, read-out: grading of mortality, SE
Experimental: The activity of the Product was determined using a variety of insect and acarine pests. The Product was used in the form of liquid preparations containing 500, 250 or 100 parts per million (ppm) by weight of the Product. The preparations were made by dissolving the Product in acetone and diluting the solutions with water containing 0.01% by weight of a wetting agent sold under the trade name "LISSAPOL" NX until the liquid preparations contained the required concentratio of the Product. "Lissapol" is a Registered Trade Mark.
The test procedure adopted with regard to each pest was basically the same and comprised supporting a number of the pests on a medium which was usually a host plant or a foodstuff on which the pests feed, and treating either or both the pests and the medium with the preparations. The mortality of the pests was then assessed at periods usually varying from one to three days after the treatment.
The results of the tests are given in Table IV for each of the Products, at the rate in parts per million given in the second column as a grading of mortality designated as A, B or C wherein A indicates 80-100% mortality or knockdown (70-100% in the case of Spodoptera exigua), B indicates 50-79% mortality or knockdown (50-69% in the case of Spodoptera exigua) and C indicates less than 50% mortality or knockdown.
In Table IV the pest organism used is designated by a letter code and the pest species, the support medium or food, and the type and duration of test is given in Table III.

Musca domestica [2] = experiment: Knockdown test, Musca domestica (houseflies - adults); settings: cotton wool/sugar, 4 hours, read-out: grading of knockdown, MD/KD
Outline: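 Knockdown scores were banded: A 80–100%, B 50–79%, C <50%. Test preparations of 500, 250 or 100 ppm compound were made in acetone, then diluted with water containing 0.01% Lissapol NX, and applied to Musca domestica adults.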

Tetranychus urticae = experiment: Insecticidal/acaricidal test, Tetranychus urticae (spider mites - adult), contact; settings: 72 h, French bean leaf, 3 days, read-out: grading of mortality, TU
Outline: as §1

SMILES | mortality at 500 ppm (Blattella germanica) [%] | mortality at 500 ppm (Myzus persicae) [%] | mortality at 500 ppm (Nilaparvata lugens) [%] | mortality at 500 ppm (Heliothis virescens) [%] | mortality at 500 ppm (Musca domestica [1]) [%] | mortality at 500 ppm (Diabrotica balteata) [%] | mortality at 500 ppm (Spodoptera exigua) [%] | pest or weed control at 500 ppm (Musca domestica [2]) [%] | mortality at 500 ppm (Tetranychus urticae) [%] | mortality at 100 ppm (Blattella germanica) [%] | mortality at 100 ppm (Myzus persicae) [%] | mortality at 100 ppm (Nilaparvata lugens) [%] | mortality at 100 ppm (Heliothis virescens) [%] | mortality at 100 ppm (Musca domestica [1]) [%] | mortality at 100 ppm (Diabrotica balteata) [%] | mortality at 100 ppm (Spodoptera exigua) [%] | pest or weed control at 100 ppm (Musca domestica [2]) [%] | mortality at 100 ppm (Tetranychus urticae) [%]
CCOc1ccc(C(COCc2cccc(Cc3ccccc3)c2)C(F)(F)F)cc1 (centres unmarked) [Compound 12, 1,1,1-Trifluoro-2-(4-ethoxyphenyl)-3-(3-benzylbenzyloxy)propane] | 80 to 100 | 80 to 100 | 80 to 100 | 80 to 100 | 80 to 100 | 80 to 100 | 70 to 100 | 80 to 100 | < 50 |  |  |  |  |  |  |  |  | 
CCOc1c(F)cc(C(O)(COCc2cccc(Oc3ccccc3)c2)C(F)(F)F)cc1F (racemic) [Compound 176, (RS)-1,1,1-trifluoro-2-(3,5-difluoro-4-ethoxyphenyl)-3-(3-phenoxybenzyloxy)propan-2-ol] | < 50 | < 50 | < 50 | 50 to 79 | < 50 | 80 to 100 | 70 to 100 | 80 to 100 | < 50 |  |  |  |  |  |  |  |  | 
Fc1ccc(C(Cl)(COCc2ccc(F)c(Oc3ccccc3)c2)C(F)(F)F)cc1 (centres unmarked) [Compound 51, 1,1,1-Trifluoro-2-chloro-2-(4-fluorophenyl)-3-(3-phenoxy-4-fluorobenzyloxy)propane] |  |  |  |  |  |  |  |  |  | < 50 | < 50 | 50 to 79 | 80 to 100 | < 50 | 80 to 100 | 70 to 100 | < 50 | < 50
FC(F)(F)Oc1ccc(C(Cl)(COCc2cccc(Oc3ccccc3)n2)C(F)(F)F)cc1 (centres unmarked) [Compound 61] |  |  |  |  |  |  |  |  |  | 80 to 100 | 80 to 100 | 80 to 100 | 80 to 100 | 80 to 100 | 80 to 100 | 70 to 100 | 80 to 100 | 80 to 100
Cc1ccc(C(COCc2cccc(Oc3ccccc3)c2)C(F)(F)F)cc1 (centres unmarked) [Compound 22, 1,1,1-Trifluoro-2-(4-methylphenyl)-3-(3-phenoxybenzyloxy)propane] | 80 to 100 |  | 80 to 100 | 50 to 79 | 80 to 100 | 80 to 100 | 70 to 100 | 80 to 100 | < 50 |  |  |  |  |  |  |  |  | 
COCc1ccc(C(COCc2cccc(Oc3ccccc3)c2)C(F)(F)F)cc1 (centres unmarked) [Compound 24, 1,1,1-Trifluoro-2-(4-methoxymethylphenyl)-3-(3-phenoxybenzyloxy)propane] |  |  |  |  |  |  |  |  |  | 80 to 100 | 80 to 100 | 80 to 100 | 50 to 79 | 80 to 100 | 80 to 100 | 70 to 100 | 80 to 100 | < 50
CCOc1c(F)cc(C(COCc2ccc(F)c(Oc3ccccc3)c2)C(F)(F)F)cc1F (racemic) [Compound 166, (RS)-1,1,1-Trifluoro-2-(3,5-difluoro-4-ethoxyphenyl)-3-(3-phenoxy-4-fluorobenzyloxy)propane] | 80 to 100 | 50 to 79 | 80 to 100 | 80 to 100 | 80 to 100 | 80 to 100 | 70 to 100 | 80 to 100 | 80 to 100 |  |  |  |  |  |  |  |  | 
OC(COCc1cccc(Oc2ccccc2)c1)(c1ccc(C(F)(F)F)cc1)C(F)(F)F (centres unmarked) [Compound 137, 1,1,1-Trifluoro-2-(4-trifluoromethylphenyl)-3-(3-phenoxybenzyloxy)propan-2-ol] | < 50 | 80 to 100 | < 50 | < 50 | < 50 | < 50 | 70 to 100 | < 50 | < 50 |  |  |  |  |  |  |  |  | 
OC(COCc1cccc(Oc2ccccc2)n1)(c1ccc(OC(F)(F)F)cc1)C(F)(F)F (centres unmarked) [Compound 136, 1,1,1-Trifluoro-2-(4-trifluoromethoxyphenyl)-3-(6-phenoxy-2-pyridylmethyloxy)propan-2-ol] | < 50 | < 50 | < 50 | 50 to 79 | 80 to 100 | 80 to 100 | < 50 | 80 to 100 | < 50 |  |  |  |  |  |  |  |  | 
CCOc1ccc(C(COC(c2cccc(Oc3ccccc3)c2)C(F)(F)F)C(F)(F)F)cc1 (racemic) [Compound 264] | < 50 | < 50 |  | < 50 | < 50 | < 50 | 70 to 100 | < 50 | 50 to 79 |  |  |  |  |  |  |  |  | 
CCOc1ccc(C(COCc2c(F)c(F)c(C)c(F)c2F)C(F)(F)F)cc1 (centres unmarked) [Compound 2, 1,1,1-Trifluoro-2-(4-ethoxyphenyl)-3-(4-methyl-2,3,5,6-tetrafluorobenzyloxy)propane] | 80 to 100 | 50 to 79 | 80 to 100 | < 50 | 50 to 79 | 80 to 100 |  | < 50 | < 50 |  |  |  |  |  |  |  |  | 
FC(F)(F)C(COCc1cccc(Oc2ccccc2)c1)c1ccc(Cl)cc1 (centres unmarked) [Compound 16, 1,1,1-Trifluoro-2-(4-chlorophenyl)-3-(3-phenoxybenzyloxy)propane] |  |  |  |  |  |  |  |  |  | 80 to 100 | 80 to 100 | 80 to 100 | 80 to 100 | 80 to 100 | 80 to 100 |  | 80 to 100 | < 50
CCCc1ccc(C(COCc2ccc(F)c(Oc3ccccc3)c2)C(F)(F)F)cc1 (centres unmarked) [Compound 20, 1,1,1-Trifluoro-2-(4-n-propylphenyl)-3-(3-phenoxy-4-fluorobenzyloxy)propane] |  |  |  |  |  |  |  |  |  | 80 to 100 | 80 to 100 | 80 to 100 | 80 to 100 | 80 to 100 | 80 to 100 |  | 80 to 100 | 80 to 100
CCOc1ccc(C(Cl)(COCc2cccc(Oc3ccccc3)c2)C(F)(F)F)cc1 (centres unmarked) [Compound 38, 1,1,1-trifluoro-2-chloro-2-(4-ethoxyphenyl)-3-(3-phenoxybenzyloxy)propane] |  |  |  |  |  |  |  |  |  | 80 to 100 | 80 to 100 | 50 to 79 | 80 to 100 | 80 to 100 | < 50 |  | < 50 | < 50
FC(F)(F)Oc1ccc(C(Cl)(COCc2cccc(Oc3ccccc3)c2)C(F)(F)F)cc1 (centres unmarked) [Compound 59, 1,1,1-Trifluoro-2-chloro-2-(4-trifluoromethoxyphenyl)-3-(3-phenoxybenzyloxy)propane] |  |  |  |  |  |  |  |  |  | 80 to 100 | < 50 | 80 to 100 | 80 to 100 | 80 to 100 | 80 to 100 |  | 80 to 100 | 80 to 100
